Read-outs that look alike come from different tables or passages of the source.
Legend:
[1] = tested on: F10T (hairpin duplex DNA); assay type: binding; conditions: oligonucleotide 200 nM
MRC-5 cells [2] = tested on: MRC-5 cells; parameters: method as in number not given; conditions: footnote c 'From ref', ref number not given; cited from earlier work
[3] = tested on: promastigote form of L. major; parameters: method as in number not given; conditions: promastigotes; footnote c 'From ref', ref number not given; cited from earlier work
[4] = tested on: F21T Na+ (human telomeric G-quadruplex, sodium buffer); assay type: binding; conditions: oligonucleotide 200 nM
[5] = tested on: F21T K+ (human telomeric G-quadruplex, potassium buffer); assay type: binding; conditions: oligonucleotide 200 nM
[6] = tested on: Fmt6363T (human mitochondrial G-quadruplex); experiment: FRET melting assay, Fmt6363T; assay type: binding; conditions: oligonucleotide 200 nM
[7] = tested on: FEbr1T (T. brucei G-quadruplex); experiment: FRET melting assay, FEbr1T; assay type: binding; conditions: oligonucleotide 200 nM
[8] = tested on: FMycT (c-Myc promoter G4); experiment: FRET melting assay, FMycT; assay type: binding; conditions: oligonucleotide 200 nM
[9] = tested on: bloodstream form of T. brucei; parameters: method as in number not given; conditions: footnote c 'From ref', ref number not given; cited from earlier work
[10] = tested on: F21T (DNA, G4) GGGTTAGGGTTAGGGTTAGGG; experiment: FRET melting; conditions: K+ (10 mM KCl), 90 mM LiCl; 10 mM Li cacodylate; compound 10 µM, DNA 200 nM
BSF T. brucei parasites = experiment: CellTiter-Glo luminescent cell viability assay; assay type: cell-based; conditions: Trypanosoma brucei, 72 h, read-out: IC50 T. brucei (CellTiter-Glo)
Procedure: Ten μL portion of Cell Titer Glo was then added to every well, and after 10 min of incubation at room temperature, the luminescence of the plates was recorded using the Infinite F200 plate reader (TECAN Austria, GmbH). […] Presented data are the mean value of three independent measurements, all of them conducted under triplicate conditions.

[11] = tested on: Fmt6363T (DNA, G4) AGGGACGCGGGCGGGGGATATAGGGT; experiment: FRET melting; conditions: K+ (10 mM KCl), 90 mM LiCl; 10 mM Li cacodylate; compound 10 µM, DNA 200 nM
MRC-5 cells [12] = experiment: alamarBlue cytotoxicity assay, MRC-5; assay type: cell-based; conditions: MRC5, human lung fibroblasts, 72 h
[13] = tested on: F10T (DNA, hairpin, hexaethylene glycol (HEG, [(-CH2CH2O-)6]) linker between 10 and 11) TATAGCTATATATAGCTATA; experiment: FRET melting; conditions: K+ (10 mM KCl), 90 mM LiCl; 10 mM Li cacodylate; compound 10 µM, DNA 200 nM
[14] = tested on: FEbr1T (DNA, G4) GGGCAGGGGGTGATGGGGAGGAGCCAGGG; experiment: FRET melting; conditions: K+ (10 mM KCl), 90 mM LiCl; 10 mM Li cacodylate; compound 10 µM, DNA 200 nM
[15] = tested on: promastigote form of L. major; experiment: MTT-based antileishmanial assay, promastigotes; assay type: cell-based, Leishmania major; conditions: Leishmania major; promastigotes, 72 h, MTT; error as σ
Procedure: The antileishmanial activity of the compounds against the promastigote form of L. major, the […] was determined using an MTT-based assay (Sigma-Aldrich). Stock solutions of the compounds were prepared in DMSO with the final DMSO percentage in each well maintained below 1%. 4 × 10^6 parasites per mL were incubated at 28 °C in 96-well plates (50 μL/well) either alone or in the presence of increasing concentrations of compounds DMSO for 72 h. After the incubation period, 10 μL of MTT (5 mg/mL) was added to each well, and the parasites were incubated for 4 h at 28 °C. Subsequently, cell lysis was performed using 50 μL/well of 20% SDS. […] Data were presented as the average of at least three independent measurements, each conducted under triplicate conditions. […] “single marker” […] S7

other G4 sequences = experiment: FRET melting assay, other examined G4s; assay type: binding; conditions: ligand 10 μM; range over the remaining G4s
Procedure: The stabilization of G4 structures was initially evaluated by using the Förster resonance energy transfer (FRET) melting assay. This analysis evaluated the binding of the compounds against four G4-forming oligonucleotides and a hairpin duplex sequence to determine both G4:duplex and G4:G4 selectivity.
FRET melting assays were performed to assess ligand affinity for duplex and G-quadruplex DNA.
proximity of the donor and quencher result in no observed fluorescence from FAM, since energy
is transferred non-radiatively to TAMRA by FRET. As the temperature is raised and the secondary
structure denatures, the fluorophores move further apart and the fluorescence signal increases.
From the resulting curve, the characteristic melting temperature (Tmax, also referred to as Tm) is
defined as the temperature which corresponds to the maxima of the first derivative of the
normalised fluorescence signal. The change in melting temperature (ΔTm) induced by the presence
of a small molecule ligand provides an indication of the ligand’s ability to stabilise the DNA
co-workers 12 on an AriaMx qPCR instrument.
min, before heating at 1 °C/min to 96 °C in 1 °C increments, followed by monitoring the
fluorescence output at each increment for 1 min. The fluorescence emission of FAM was followed
The final concentration of oligonucleotide was 200 nM in all cases. For F21T in Na+ conditions, […]

[16] = tested on: bloodstream form of T. brucei; experiment: alamarBlue (resazurin) antitrypanosomal assay; assay type: cell-based, Trypanosoma brucei; conditions: Trypanosoma brucei; bloodstream form, 72 h, alamarBlue/resazurin; error as σ
mt6363 G4 = experiment: UV-vis absorbance titration; assay type: binding, human; conditions: ligand 10 μM, 100 mM potassium phosphate, pH 7.4; numbers only in Figure 6
Procedure: Furthermore, the analysis confirmed its selectivity for G4 structures over duplex DNA.
6 (A) Equilibrium binding constants calculated for compounds 2b and 2c with several G-quadruplexes (telo23, Ebr1, and mt6363) and a duplex DNA (ds26) sequence. (B) UV–vis titration of 2b with telo23, mt6363, Ebr1, and ds26. Buffer = 100 mM potassium phosphate, pH 7.4. Ligand concentration: 10 μM. […]
oligonucleotides were at a concentration of 5 µM in potassium phosphate buffer (100 mM, pH 7.4). Data processing was carried out using Python and Prism 10 (GraphPad Software) with a 4-point second order smoothing polynomial applied to all spectra. Observed ellipticities were converted to molar ellipticity.
Absorbance spectra were recorded on a Cary 60 UV-Visible spectrophotometer using a room-light immune fibre optic probe with 10 mm path length. The UV-Vis spectra were recorded between 700 – 300 nm and were corrected for background and buffer absorbance.
In the titrations, the concentration of ligand was fixed at 10 µM in an initial volume of 500 µL in potassium phosphate buffer (100 mM, pH 7.4). […]
Table S1. Synthesis and photophysical data in acetonitrile solution (absorption, λabs, fluorescence emission maxima, λfluo, molar absorptivity, Ɛ and fluorescence quantum yield, ɸF) for the 2-ethenyl-benzothiazolium derivatives 2a-j. […]

HT-29 cells = experiment: alamarBlue antiproliferative assay, HT-29; assay type: cell-based, human; conditions: Homo sapiens, HT-29; 72 h, alamarBlue
[17] = tested on: mt6363 (DNA, G4) AGGGACGCGGGCGGGGGATATAGGGT; experiment: CD titration; conditions: K+ (100 mM potassium phosphate); pH 7.4, 20 °C, DNA 5 µM
[18] = tested on: Ebr1 (DNA, G4) GGGCAGGGGGTGATGGGGAGGAGCCAGGG; experiment: CD titration; conditions: K+ (100 mM potassium phosphate); pH 7.4, 20 °C, DNA 5 µM
THP-1 cells = experiment: alamarBlue cytotoxicity assay, PMA-differentiated THP-1; assay type: cell-based, human; conditions: Homo sapiens, PMA-differentiated THP-1, 72 h
[19] = tested on: telo23 (DNA, G4) TAGGGTTAGGGTTAGGGTTAGGG; experiment: CD titration; conditions: K+ (100 mM potassium phosphate); pH 7.4, 20 °C, DNA 5 µM
[20] = tested on: intracellular amastigote form of L. major; experiment: Luciferase assay, intracellular amastigotes in THP-1 macrophages; assay type: cell-based, Leishmania major; conditions: Leishmania major
Procedure: The antileishmanial activity of the compounds against the intracellular form of L. major was evaluated using the Luciferase Assay System kit from Promega. THP-1 cells were seeded at a density of 3 × 10^5 cells/mL in 96-well plates (100 μL/well) and treated with 20 ng/mL PMA (phorbol 12-myristate 13-acetate, Sigma) for 48 h to induce differentiation. Postdifferentiation, the cells were washed, and fresh medium was added (100 μL/well) before being reincubated. Following an additional 24 h, the wells were washed, and 50 μL of L. major parasites at a density of 1.5 × 10^6 parasites/mL (suspended in RPMI-1640 medium 5% hiFBS and 5% penicillin/streptomycin) were added to the wells. The plates were then incubated at 35 °C in 5% CO2. After 24 h, the wells were washed three times with PBS, and fresh medium with increasing concentrations of compounds was added (100 μL/well). After another 72 h of incubation, the cells were then treated with 25 μL of lysis buffer and stored at −80 °C. Following 24 h, 25 μL of luciferase enzyme substrate was added to each well, and the luciferase activity of the amastigotes was determined using a TECAN Infinite F200 microplate reader. […] Data were presented as the average of at least three independent measurements, each conducted under triplicate conditions.
Parasite and cell culturing […]
Leishmania major (MHOM/IL/80/Friedlin) promastigotes and its derivative luminescent strain L. major LucRE9 with the luciferase gene integrated into the parasite genome (LUC) were cultured at 28 °C, 5 % CO2 in modified RPMI-1640 medium (Invitrogen, Carlsbad, CA) supplemented with 10 % hiFBS6, including […] blasticidin in the LucRE9 strain. 7 Parasites were maintained in culture in their […] growth phase (below 2 million T. brucei parasites per mL, ,10 million L. major parasites per mL for promastigotes experiments), and in the stationary phase , 20 million L. major parasites per mL for THP -1 infection experiments.
MRC-5 cell line (human lung fibroblast) was grown in monolayer at 37 °C, 5 % CO2 in DMEM medium (1 g/L glucose) supplemented with 10% hiFBS, 100 U/mL penicillin, […] streptomycin and 2 mM L-glutamine.8
THP-1 cells (human monocytic cell line) were maintained in RPMI-1640 medium supplemented with 10% heat-inactivated fetal bovine serum (hiFBS) and 5 % penicillin/streptomycin (37 °C, 5 % CO2, and 100 % humidity). […]

HeLa cells = experiment: alamarBlue antiproliferative assay, HeLa; assay type: cell-based, human; conditions: Homo sapiens, HeLa; 72 h, alamarBlue

Structure (SMILES): C[n+]1ccc(-c2c3nc(c(-c4cc[n+](C)cc4)c4ccc([nH]4)c(-c4cc[n+](C)cc4)c4ccc([nH]4)c(-c4cc[n+](C)cc4)c4nc2C=C4)C=C3)cc1 [TMPyP4, reference compound]
- ΔTm F10T ([1]; positive control at 1 μM): 1.7 ± 0.1 °C
- IC50 (MRC-5 cells [2]): > 25000 nM
- IC50 [3]: 20800 ± 4860 nM
- ΔTm F21T Na+ ([4]; positive control at 1 μM): 10.4 ± 0.4 °C
- ΔTm F21T K+ ([5]; positive control at 1 μM): 16.4 ± 0.4 °C
- ΔTm Fmt6363T ([6]; positive control at 1 μM): 7.1 ± 0.4 °C
- ΔTm FEbr1T ([7]; positive control at 1 μM): 12.4 ± 0.9 °C
- ΔTm FMycT ([8]; positive control at 1 μM): 12.6 ± 1.1 °C
- IC50 [9]: > 10000 nM

Structure (SMILES): Cc1ccc2c(c1)sc(-c1ccc(N(C)C)cc1)[n+]2C [ThT, Thioflavin T, reference compound]
- ΔTm [10]: 5.5 ± 0.2 °C
- ΔTm F10T ([1]; ligand 10 μM, 10 mM KCl): 0.1 ± 0.1 °C
- IC50 (BSF T. brucei parasites; BSF parasites, luminescence): 62 ± 3 nM
- ΔTm [11]: 2.9 ± 0.4 °C
- IC50 (MRC-5 cells [12]): 183 ± 38 nM
- ΔTm F21T Na+ ([4]; ligand 10 μM, 100 mM NaCl): 1.4 ± 0.2 °C
- ΔTm [13]: 0.1 ± 0.1 °C
- ΔTm [14]: 4.5 ± 0.7 °C
- ΔTm F21T K+ ([5]; ligand 10 μM, 10 mM KCl): 5.5 ± 0.2 °C
- IC50 [15]: 23 ± 0.2 nM
- ΔTm Fmt6363T ([6]; ligand 10 μM, 10 mM KCl): 2.9 ± 0.4 °C
- ΔTm for the other examined G4 sequences (other G4 sequences): 1.4–5.5 °C
- IC50 [16]: 4.7 ± 0.3 nM
- ΔTm FEbr1T ([7]; ligand 10 μM, 10 mM KCl): 4.5 ± 0.7 °C
- ΔTm FMycT ([8]; ligand 10 μM, 1 mM KCl): 15.0 °C

Structure (SMILES): CN(C)c1ccc(/C=C/c2sc3ccccc3[n+]2C)cc1.[I-] [compound 2b]
- binding affinity (equilibrium binding constant) (mt6363 G4): higher affinity for the mt6363 G4 structure compared with the other G4 sequences
- IC50 (HT-29 cells): 6560 ± 490 nM
- ΔTm F10T ([1]; ligand 10 μM, 10 mM KCl): 2.3 ± 0.2 °C
- IC50 (BSF T. brucei parasites): 0.55 ± 0.23 nM
- binding [17]: yes
- ΔTm [11]: 19.8 ± 0.4 °C
- binding [18]: yes
- ΔTm F21T Na+ ([4]; ligand 10 μM, 100 mM NaCl): 9.1 ± 0.3 °C
- ΔTm [13]: 2.3 ± 0.2 °C
- IC50 (THP-1 cells): 480 ± 110 nM
- ΔTm F21T K+ ([5]; ligand 10 μM, 10 mM KCl): 13.1 ± 0.5 °C
- binding [19]: yes
- IC50 ([20]; THP-1, intracellular amastigotes): 0.48 nM
- IC50 ([20]; intracellular amastigotes in THP-1 macrophages, 72 h, luciferase): 0.484 ± 0.617 nM
- ΔTm Fmt6363T ([6]; ligand 10 μM, 10 mM KCl): 19.8 °C
- IC50 [16]: 0.019 ± 0.0053 nM
- ΔTm FEbr1T ([7]; ligand 10 μM, 10 mM KCl): 13.1 °C
- ΔTm FMycT ([8]; ligand 10 μM, 1 mM KCl): 8.6 ± 0.9 °C
- IC50 (HeLa cells): 9280 ± 770 nM
